Reference: patent US9260408B2, “Dihydroquinoline-2-one derivatives” (Hoffmann-La Roche Inc., priority 2011, dated 2016)
pEC50: −log10 of the molar value. Counter-ions that a name gives are not always drawn.

Columns and labels:
CYP11B2 = CYP11B2 (Homo sapiens, UniProt P19099); conditions: patients with primary aldosteronism, cited from earlier work
[1] = test system: rat model of chronic kidney disease; conditions: cited from earlier work; for plasma aldosterone: FAD286: 4 weeks of treatment, spironolactone: 4 and 8 weeks of treatment; for renal effects (albuminuria, azotemia, renovascular hypertrophy, glomerular injury, PAI-1 and osteopontin mRNA, tubulointerstitial fibrosis): angiotensin II and high salt treatment; for angiotensin II and salt-stimulated PAI-1 mRNA expression in the aorta and the heart: rat, in vivo
[2] = test system: rats with experimental heart failure; conditions: rat, in vivo; cited from earlier work
human CYP11B2 = molecular target: T1, human CYP11B2 (Homo sapiens, UniProt P19099); test: G-402 cellular enzyme assay, human CYP11B2 (aldosterone release, HTRF); type: cell-based; conditions: G-402 cells expressing human CYP11B2; 1 μM Deoxycorticosterone
T1 construct: expressed in transfected cells
T1 sequence (P19099 25-503): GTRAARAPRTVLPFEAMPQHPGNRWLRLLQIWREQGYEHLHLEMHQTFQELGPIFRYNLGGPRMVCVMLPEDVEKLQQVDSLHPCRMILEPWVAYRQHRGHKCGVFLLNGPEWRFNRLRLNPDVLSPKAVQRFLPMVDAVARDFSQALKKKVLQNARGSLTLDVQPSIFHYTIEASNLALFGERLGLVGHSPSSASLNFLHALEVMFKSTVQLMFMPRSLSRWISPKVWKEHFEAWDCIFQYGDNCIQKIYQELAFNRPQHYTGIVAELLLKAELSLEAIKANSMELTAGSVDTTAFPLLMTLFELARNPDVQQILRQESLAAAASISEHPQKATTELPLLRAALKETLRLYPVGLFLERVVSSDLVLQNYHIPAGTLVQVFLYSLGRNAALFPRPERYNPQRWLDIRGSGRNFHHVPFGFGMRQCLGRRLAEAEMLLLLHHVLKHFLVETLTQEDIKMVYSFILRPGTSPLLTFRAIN
Procedure, shortened: (§1)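 G-402 cells stably expressing human CYP11B2 or CYP11B1, in DMEM/F12 with 2.5% charcoal-treated FCS, were incubated 16 h with compound plus 1 μM deoxycorticosterone (CYP11B2) or 1 μM deoxycortisol (CYP11B1). Aldosterone or cortisol in the supernatant measured by HTRF; EC50 from a 4-parameter MMF fit.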

human CYP11B1 = molecular target: T2, human CYP11B1 (Homo sapiens, UniProt P15538); test: G-402 cellular enzyme assay, human CYP11B1 (cortisol release, HTRF); type: cell-based; conditions: G-402 cells expressing human CYP11B1; 1 μM Deoxycortisol
T2 construct: expressed in transfected cells
T2 sequence (P15538 25-503): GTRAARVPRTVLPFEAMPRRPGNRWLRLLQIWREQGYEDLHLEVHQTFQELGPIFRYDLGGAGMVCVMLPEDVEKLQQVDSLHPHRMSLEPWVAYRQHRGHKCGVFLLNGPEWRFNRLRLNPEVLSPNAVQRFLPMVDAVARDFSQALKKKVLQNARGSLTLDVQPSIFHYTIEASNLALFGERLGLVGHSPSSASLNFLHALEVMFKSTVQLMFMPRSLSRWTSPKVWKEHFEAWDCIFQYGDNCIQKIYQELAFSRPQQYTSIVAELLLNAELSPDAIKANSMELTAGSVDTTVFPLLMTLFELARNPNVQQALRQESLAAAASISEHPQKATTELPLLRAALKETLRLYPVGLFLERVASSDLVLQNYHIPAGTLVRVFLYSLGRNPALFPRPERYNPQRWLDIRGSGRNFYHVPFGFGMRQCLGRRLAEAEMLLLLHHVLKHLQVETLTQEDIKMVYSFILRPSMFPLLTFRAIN
Procedure, shortened: as §1

Row | pEC50 (human CYP11B2) | pEC50 (human CYP11B1) | Compound | other results
1 | – | – | N#Cc1ccc([C@H]2CCc3cncn32)c(F)c1 [LCI699] | circulating aldosterone levels (CYP11B2; oral): significantly lower; blood pressure (CYP11B2): mildly decreased; hypokalemia (CYP11B2): corrected; selectivity (effects on the glucocorticoid axis) (CYP11B2): poor selectivity
2 | – | – | CC(=O)S[C@@H]1CC2=CC(=O)CC[C@]2(C)[C@H]2CC[C@@]3(C)[C@@H](CC[C@@]34CCC(=O)O4)[C@H]12 [spironolactone] | plasma aldosterone [1]: increased; renal effects (albuminuria, azotemia, renovascular hypertrophy, glomerular injury, PAI-1 and osteopontin mRNA, tubulointerstitial fibrosis) [1]: prevented these renal effects; angiotensin II and salt-stimulated PAI-1 mRNA expression in the aorta and the heart [1]: enhanced
3 | – | – | N#Cc1ccc(C2CCCc3cncn32)cc1 (stereo not shown) [FAD286] | blood pressure and cardiovascular function and structure [2]: improved; kidney function and morphology [2]: improve; plasma aldosterone [1]: reduced; renal effects (albuminuria, azotemia, renovascular hypertrophy, glomerular injury, PAI-1 and osteopontin mRNA, tubulointerstitial fibrosis) [1]: prevented these renal effects; angiotensin II and salt-stimulated PAI-1 mRNA expression in the aorta and the heart [1]: not
4 | 7.59 | 6.41 | CC(N[S@+]([O-])C(C)(C)C)c1cncc(-c2ccc3c(c2)CCC(=O)N3C)c1 (single isomer, unassigned) [Example 57, (R)-2-Methyl-propane-2-sulfinic acid {(R or S)-1-[5-(1-methyl-2-oxo-1,2,3,4-tetrahydro-quinolin-6-yl)-pyridin-3-yl]-ethyl}-amide] | –
5 | 9.00 | 7.89 | CCC(=O)N1CCC(Oc2cncc(-c3ccc4c(c3)CCC(=O)N4C)c2)CC1 [Example 88] | –
6 | 8.10 | 6.29 | CN(Cc1cncc(-c2ccc3c(c2)CCC(=O)N3C)c1)C(=O)c1ncccc1Cl [Example 196, 3-Chloro-pyridine-2-carboxylic acid methyl-[5-(1-methyl-2-oxo-1,2,3,4-tetrahydro-quinolin-6-yl)-pyridin-3-ylmethyl]-amide] | –
7 | 8.52 | 6.36 | CN1C(=O)CCc2cc(-c3cncc(CNC(=O)c4ncccc4Cl)c3)c(F)cc21 [Example 131, 3-Chloro-pyridine-2-carboxylic acid [5-(7-fluoro-1-methyl-2-oxo-1,2,3,4-tetrahydro-quinolin-6-yl)-pyridin-3-ylmethyl]-amide] | –
8 | 6.43 | 4.95 | COc1ccc(S(=O)(=O)NCc2cncc(-c3ccc4c(c3)CCC(=O)N4C)c2)cn1 [Example 153, 6-Methoxy-pyridine-3-sulfonic acid [5-(1-methyl-2-oxo-1,2,3,4-tetrahydro-quinolin-6-yl)-pyridin-3-ylmethyl]-amide] | –
9 | 7.17 | 5.25 | CN1C(=O)CCc2cc(-c3cncc(CNC(=O)C4CC4)c3)ccc21 [Example 41, Cyclopropanecarboxylic acid [5-(1-methyl-2-oxo-1,2,3,4-tetrahydro-quinolin-6-yl)-pyridin-3-ylmethyl]-amide] | –
10 | 7.09 | 5.60 | CN1C(=O)CCc2cc(-c3cncc(O[C@H]4CC[C@H](N)CC4)c3)ccc21 [Example 71, 6-[5-((trans)-4-amino-cyclohexyloxy)-pyridin-3-yl]-1-methyl-3,4-dihydro-1H-quinolin-2-one hydrochloride] | –
11 | 7.80 | 6.20 | Cc1nocc1C(=O)NCc1cncc(-c2ccc3c(c2)CCC(=O)N3C)c1 [Example 92] | –
12 | 6.92 | 5.94 | CN1C(=O)CCc2cc(-c3cncc(CNC(=O)CC(F)(F)F)c3)ccc21 [Example 78] | –
13 | 6.49 | < 5.00 | CN1C(=O)CCc2cc(-c3cccnc3)ncc21 [Example 35, 1-Methyl-6-pyridin-3-yl-3,4-dihydro-1H-[1,7]naphthyridin-2-one] | –
14 | 9.00 | 6.63 | Cc1noc(C)c1C(=O)NCCOc1cncc(-c2cc3c(cc2F)N(C)C(=O)CC3)c1 [Example 267, 3,5-Dimethyl-isoxazole-4-carboxylic acid {2-[5-(7-fluoro-1-methyl-2-oxo-1,2,3,4-tetrahydro-quinolin-6-yl)-pyridin-3-yloxy]-ethyl}-amide] | –
15 | 6.96 | 5.33 | CCS(=O)(=O)NCc1cncc(-c2cc3c4c(c2)CCC(=O)N4CCC3)c1 [Example 235, Ethanesulfonic acid [5-(3-oxo-2,3,6,7-tetrahydro-1H,5H-pyrido[3,2,1-ij]quinolin-9-yl)-pyridin-3-ylmethyl]-amide] | –
16 | 7.36 | 5.59 | CCS(=O)(=O)NCc1cncc(-c2cc3c(cc2Cl)N(C)C(=O)CC3)c1 [Example 207, Ethanesulfonic acid [5-(7-chloro-1-methyl-2-oxo-1,2,3,4-tetrahydro-quinolin-6-yl)-pyridin-3-ylmethyl]-amide] | –
17 | 8.15 | 6.85 | COc1ccc(C(=O)NCc2cncc(-c3ccc4c(c3)CCC(=O)N4C)c2)nn1 [Example 100] | –
18 | 7.08 | 5.74 | Cn1c(=O)ccc2cc(-c3cncc(C4(N)CC4)c3)ccc21 [Example 262, 6-[5-(1-Amino-cyclopropyl)-pyridin-3-yl]-1-methyl-1H-quinolin-2-one] | –
19 | 8.30 | 6.92 | CCS(=O)(=O)N(C)Cc1cncc(-c2cc3c(cc2F)N(C)C(=O)CC3)c1 [Example 211, Ethanesulfonic acid [5-(7-fluoro-1-methyl-2-oxo-1,2,3,4-tetrahydro-quinolin-6-yl)-pyridin-3-ylmethyl]-methyl-amide] | –

Row | Compound | pEC50 (human CYP11B2) | pEC50 (human CYP11B1) | other results
20 | CN1C(=O)CCc2cc(-c3cncc(OC[C@@H]4CCN4)c3)ccc21 [Example 63, 6-[5-((S)-1-Azetidin-2-ylmethoxy)-pyridin-3-yl]-1-methyl-3,4-dihydro-1H-quinolin-2-one] | 6.14 | 4.80 | –
